23 compounds from US12162858B2, “Quinoline derivatives as inhibitors of AXL/MER RTK and CSF1R” (QURIENT CO., LTD., priority 2018, dated 2024) can be followed below.

As usually defined, the Kd is the constant that tells how readily two partners part at equilibrium.

The target of one assay is T1, Axl (Homo sapiens, UniProt P30530).
T1 sequence (P30530 26-894): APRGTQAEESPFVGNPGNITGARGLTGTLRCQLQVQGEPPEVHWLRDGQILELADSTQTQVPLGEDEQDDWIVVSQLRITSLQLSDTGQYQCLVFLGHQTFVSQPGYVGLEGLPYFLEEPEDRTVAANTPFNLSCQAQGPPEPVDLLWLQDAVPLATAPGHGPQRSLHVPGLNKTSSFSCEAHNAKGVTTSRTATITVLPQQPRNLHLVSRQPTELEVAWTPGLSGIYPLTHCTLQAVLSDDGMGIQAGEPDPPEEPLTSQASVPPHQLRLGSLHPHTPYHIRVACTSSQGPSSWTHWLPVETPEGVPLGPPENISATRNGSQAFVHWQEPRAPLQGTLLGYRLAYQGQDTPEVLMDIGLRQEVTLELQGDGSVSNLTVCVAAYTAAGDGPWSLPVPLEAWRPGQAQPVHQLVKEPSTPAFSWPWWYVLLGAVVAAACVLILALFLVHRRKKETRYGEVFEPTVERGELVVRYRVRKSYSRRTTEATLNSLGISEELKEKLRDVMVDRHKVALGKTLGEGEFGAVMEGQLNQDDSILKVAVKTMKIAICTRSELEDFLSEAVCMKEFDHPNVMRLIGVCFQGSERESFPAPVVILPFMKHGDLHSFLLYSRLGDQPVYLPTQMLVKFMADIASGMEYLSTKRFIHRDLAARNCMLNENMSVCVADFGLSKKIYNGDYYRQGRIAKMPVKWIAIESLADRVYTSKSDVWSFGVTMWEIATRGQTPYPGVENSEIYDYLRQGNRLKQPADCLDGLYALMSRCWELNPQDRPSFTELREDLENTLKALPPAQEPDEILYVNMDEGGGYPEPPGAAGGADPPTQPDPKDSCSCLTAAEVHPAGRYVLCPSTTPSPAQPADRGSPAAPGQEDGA
The assay can be described thus: LanthaScreen Eu kinase binding assay for Axl. As to the method: LanthaScreen® Eu Kinase Binding assays were conducted at Life Technologies using the manufacturer's specifications for each kinase indicated.
Briefly, the principle behind this assay is based upon the binding and displacement of an Alexa Fluor 647-labeled tracer to the kinase of interest. Binding of the tracer to the kinase is detected using an EU-labeled anti-tag antibody. Simultaneous binding of both the tracer and antibody to the kinase gives rise to a FRET-signal. Binding of an inhibitor to the kinase competes for binding with the tracer, resulting in a loss of FRET-signal.
A given compound was diluted in DMSO to make a stock compound solution. The stock compound solution was serially diluted over eight steps in DMSO. Each diluted compound solution in DMSO was diluted in kinase buffer. Afterwards four kinds of working solution were prepared. First, Tracer-Working solution consists of Tracer 236 and Kinase Buffer. Second, Axl, Mer, Tyro3 or Met/anti-GST-AB-Working solution contained one of the kinases Axl, and Mer or anti-GST-AB (=anti glutathione-S-transferase antibody) in Kinase Buffer. Third, anti-GST-AB-Working solution was made with anti-GST-AB and Kinase Buffer. Last, in the DMSO-Working solution DMSO was added to Kinase Buffer to a final concentration to 3%. Each of the four kinds of working solutions were separately added to the assay plate and then incubated for 1 h at room temperature. After incubation, the assay plate was measured with respect to the FRET-Signal with the EnVision (Perkin Elmer) using the program LanthaHTRF-Assay. Data evaluation was done in the Quattro Workflow software. Kd (the equilibrium dissociation constant) values were calculated relative to vehicle (DMSO) control wells.
A general note: Time-resolved FRET reads energy transfer from a long-lived donor to a nearby acceptor.

The target in another assay is CSF1R (Homo sapiens, UniProt P07333). The experiment in a line: KINOMEscan competition binding assay for CSF1R. Set-up: DNA tag for qPCR (not a peptide); host or cells: E. coli/T7 phage or HEK-293. Conditions: for Kd: read-out: CSF1R kinase binding activity (Kd). As to the method: KINOMEscan™ is based on a competition binding assay that quantitatively measures the ability of a compound to compete with an immobilized, active-site directed ligand. The assay is performed by combining three components: DNA-tagged kinase; immobilized ligand; and a test compound. The ability of the test compound to compete with the immobilized ligand is measured via quantitative PCR of the DNA tag.
CSF1R, sequence (P07333 20-972): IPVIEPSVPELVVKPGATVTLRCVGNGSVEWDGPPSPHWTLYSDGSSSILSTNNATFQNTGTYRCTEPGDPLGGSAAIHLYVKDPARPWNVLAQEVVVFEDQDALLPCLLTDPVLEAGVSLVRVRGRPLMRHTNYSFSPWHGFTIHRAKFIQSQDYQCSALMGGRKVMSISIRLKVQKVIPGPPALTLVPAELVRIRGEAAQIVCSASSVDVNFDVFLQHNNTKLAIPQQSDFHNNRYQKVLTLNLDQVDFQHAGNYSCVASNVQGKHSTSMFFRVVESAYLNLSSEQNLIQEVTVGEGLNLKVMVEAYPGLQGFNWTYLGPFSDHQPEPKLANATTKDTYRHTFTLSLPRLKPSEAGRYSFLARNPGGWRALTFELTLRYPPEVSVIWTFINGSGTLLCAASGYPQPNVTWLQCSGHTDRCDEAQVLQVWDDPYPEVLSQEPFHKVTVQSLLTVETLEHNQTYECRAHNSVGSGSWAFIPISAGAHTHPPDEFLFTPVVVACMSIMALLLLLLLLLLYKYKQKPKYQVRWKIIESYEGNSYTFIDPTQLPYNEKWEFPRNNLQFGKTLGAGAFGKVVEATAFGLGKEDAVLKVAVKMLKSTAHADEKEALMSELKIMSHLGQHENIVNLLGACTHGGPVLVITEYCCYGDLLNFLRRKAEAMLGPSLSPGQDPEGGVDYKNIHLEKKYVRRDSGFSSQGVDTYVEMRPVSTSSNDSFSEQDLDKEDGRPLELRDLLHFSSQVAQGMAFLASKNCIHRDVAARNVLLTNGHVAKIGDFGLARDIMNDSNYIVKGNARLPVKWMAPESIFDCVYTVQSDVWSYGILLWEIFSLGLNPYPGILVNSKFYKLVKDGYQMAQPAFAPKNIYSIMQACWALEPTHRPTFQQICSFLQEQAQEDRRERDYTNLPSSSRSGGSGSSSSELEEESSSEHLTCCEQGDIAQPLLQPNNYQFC
E. coli were grown to log-phase and infected with T7 phage and incubated with shaking at 32° C. until lysis. The lysates were centrifuged and filtered to remove cell debris. The remaining kinases were produced in HEK-293 cells and subsequently tagged with DNA for qPCR detection. Streptavidin-coated magnetic beads were treated with biotinylated small molecule ligands for 30 minutes at room temperature to generate affinity resins for kinase assays. The liganded beads were blocked with excess biotin and washed with blocking buffer (SeaBlock (Pierce), 1% BSA, 0.05% Tween 20, 1 mM DTT) to remove unbound ligand and to reduce non-specific binding. Binding reactions were assembled by combining kinases, liganded affinity beads, and test compounds in 1× binding buffer (20% SeaBlock, 0.17×PBS, 0.05% Tween 20, 6 mM DTT). Test compounds were prepared as 111× stocks in 100% DMSO. Kds were determined using an 11-point 3-fold compound dilution series with three DMSO control points. All compounds for Kd measurements are distributed by acoustic transfer (non-contact dispensing) in 100% DMSO. The compounds were then diluted directly into the assays such that the final concentration of DMSO was 0.9%. In case of % inhibition, test compounds were prepared as 40× stocks in 100% DMSO and directly diluted into the assay. All reactions performed in polypropylene 384-well plate. Each was a final volume of 0.02 ml. The assay plates were incubated at room temperature with shaking for 1 hour and the affinity beads were washed with wash buffer (1×PBS, 0.05% Tween 20). The beads were then re-suspended in elution buffer (1×PBS, 0.05% Tween 20, 0.5 μM non-biotinylated affinity ligand) and incubated at room temperature with shaking for 30 minutes. The kinase concentration in the eluates was measured by qPCR.
The CSF1R kinase binding activity results are shown in tables 1 (Kd) and 2 (percent inhibition at a concentration of 0.1 uM of compound to be tested).
Binding constants (Kds) were calculated with a standard dose-response curve using the Hill equation: […]
The Hill Slope was set to −1.
Curves were fitted using a non-linear least square fit with the Levenberg-Marquardt algorithm.
Binding % inhibition were calculated with as below:
[formula] • negative control=DMSO (100% Ctrl) • positive control=control compound (0% Ctrl)

Setting [1] is: read-out: Axl kinase binding activity (Kd).
The mark [2] stands for this setting: read-out: CSF1R kinase binding activity, Percent (%) inhibition.
The mark [3] stands for this setting: read-out: CSF1R kinase binding activity, Range.
The mark [4] stands for this setting: comparison of compounds of present invention (**) vs compounds of WO2016/166250 (*), read-out: Binding activity Axl (Kd).

Like-named read-outs stand apart in the source and are kept apart here.

As to `COc1cc2nccc(Oc3ccc(NC(=O)c4nn(CC(C)O)cc4OC(C)C)nc3)c2cc1OC` (stereo not drawn) [Compound 151], the Kd at Axl (setting [1]) was less than 100 nM. Also, the figures for the inhibition at 0.1 µM at CSF1R (setting [2]) and at CSF1R (setting [3]) were 97% and no less than 80%, respectively.
On to `CCCn1cc(OCC(F)F)c(C(=O)Nc2ccc(Oc3ccnc4cc(OC)c(OC)cc34)cn2)n1` [Compound 12], for which the Kd on Axl (setting [1]) and at CSF1R was less than 100 nM throughout. The inhibition at 0.1 µM is 98% on CSF1R (setting [2]) and no less than 80% at CSF1R (setting [3]).
Turning to `CCCn1cc(OCC(F)(F)F)c(C(=O)Nc2ccc(Oc3ccnc4cc(OC)c(OC)cc34)nc2)n1` [Compound 139], at Axl (setting [1]), the Kd was less than 100 nM. Moreover, the results for the inhibition at 0.1 µM on CSF1R (setting [2]) and at CSF1R (setting [3]) were 37% and less than 50%, respectively.
`COCCn1cc(OCC(F)(F)F)c(C(=O)Nc2ccc(Oc3ccnc4cc(OC)c(OC)cc34)cn2)n1` [Compound 10]: the Kd on Axl (setting [4]) is 3.2 nM; on Axl (setting [1]), less than 100 nM; on CSF1R it was less than 100 nM. In addition, the inhibition at 0.1 µM on CSF1R (setting [2]) is 98%; at CSF1R (setting [3]) it was no less than 80%.
As to `COc1cc2nccc(Oc3ccc(NC(=O)c4nn(C5CCCC5)cc4OCC(F)(F)F)cn3)c2cc1OC` [Compound 131], on Axl (setting [1]), the Kd was less than 100 nM. For the same compound, the inhibition at 0.1 µM at CSF1R (setting [2]) is 21%; on CSF1R (setting [3]), less than 50%.
For `COc1cc2nccc(Oc3ccc(NC(=O)c4nn(C5CCN(C)C5)cc4OCC(F)(F)F)nn3)c2cc1OC` (stereo not drawn) [Compound 157] the same measures were 100 to 500 nM, 81% and no less than 80%.
For the compound `COc1cc2nccc(Oc3ccc(NC(=O)c4nn(C5CC5)cc4OC(C)C)nc3)c2cc1OC` [Compound 108], at Axl (setting [1]), the Kd is less than 100 nM. In addition, the inhibition at 0.1 µM on CSF1R (setting [2]) is 96%; at CSF1R (setting [3]) it was no less than 80%.
For `COc1cc2nccc(Oc3ccc(NC(=O)c4nn(CCOC5CC5)cc4OCC(F)(F)F)cn3)c2cc1OC` [Compound 130] the same measures were less than 100 nM, 41% and less than 50%.
The corresponding values for `COc1cc2nccc(Oc3ccc(NC(=O)c4nn(C5CC5)cc4OCC4COC4)nn3)c2cc1OC` [Compound 161] are less than 100 nM, 14% and less than 50%.
Turning to `COc1cc2nccc(Oc3ccc(NC(=O)c4nn(CC(C)C)cc4OCC(F)(F)F)nn3)c2cc1OC` [Compound 124], the Kd on Axl (setting [1]) was less than 100 nM. The values for the inhibition at 0.1 µM at CSF1R (setting [2]) and at CSF1R (setting [3]) were 95% and no less than 80%, respectively.
The corresponding values for `CCCn1cc(OCCOC)c(C(=O)Nc2ccc(Oc3ccnc4cc(OC)c(OC)cc34)cn2)n1` [Compound 105] are less than 100 nM, 91% and no less than 80%.
Regarding `COc1cc2nccc(Oc3ccc(NC(=O)c4nn(C5CC5)cc4OCC(F)(F)F)nn3)c2cc1OC` [Compound 112], the Kd at Axl (setting [1]) is less than 100 nM. Also, the inhibition at 0.1 µM is 97% on CSF1R (setting [2]) and no less than 80% at CSF1R (setting [3]).
Consider `COc1cc2nccc(Oc3ccc(NC(=O)c4nn(CCOC5CC5)cc4OCC(F)(F)F)nc3)c2cc1OC` [Compound 153], for which, on Axl (setting [1]), the Kd is less than 100 nM. The inhibition at 0.1 µM on CSF1R (setting [2]) is 95%; at CSF1R (setting [3]), no less than 80%.
Take `COc1cc2nccc(Oc3ccc(NC(=O)c4nn(C5CC5)cc4NCCC(F)(F)F)nn3)c2cc1OC` [Compound 146]: the Kd at Axl (setting [1]) is less than 100 nM. The results for the inhibition at 0.1 µM on CSF1R (setting [2]) and on CSF1R (setting [3]) were 43% and less than 50%, respectively.
Regarding `COc1cc2nccc(Oc3ccc(NC(=O)c4nn(CCN(C)C)cc4OCC(F)(F)F)nc3)c2cc1OC` [Compound 9], the Kd on Axl (setting [1]) and on CSF1R was less than 100 nM in each case. Further, the inhibition at 0.1 µM at CSF1R (setting [2]) is 92%; on CSF1R (setting [3]), no less than 80%.
Turning to `CNCCn1cc(OCC(F)(F)F)c(C(=O)Nc2ccc(Oc3ccnc4cc(OC)c(OC)cc34)cn2)n1` [Compound 11], the Kd at Axl (setting [1]) and on CSF1R was less than 100 nM in each case. Besides, the inhibition at 0.1 µM at CSF1R (setting [2]) was 88%; on CSF1R (setting [3]) it was no less than 80%.
As for `CNCCn1cc(OCC(F)(F)F)c(C(=O)Nc2ccc(Oc3ccnc4cc(OC)c(OC)cc34)nc2)n1` [Compound 137], the Kd at Axl (setting [1]) is no less than 500 nM. The inhibition at 0.1 µM is 6% on CSF1R (setting [2]) and less than 50% at CSF1R (setting [3]).
Take `COCCn1cc(OCC(F)(F)F)c(C(=O)Nc2ccc(Oc3ccnc4cc(OC)c(OC)cc34)nn2)n1` [Compound 126]: the Kd at Axl (setting [1]) is less than 100 nM. Further, the inhibition at 0.1 µM at CSF1R (setting [2]) was 78%; on CSF1R (setting [3]) it was 50 to 80%.
`COCCn1cc(OCC(F)(F)F)c(C(=O)Nc2ccc(Oc3ccnc4cc(OC)c(OC)cc34)nc2)n1` [Compound 104]: the Kd on Axl (setting [1]) was less than 100 nM. Also, the inhibition at 0.1 µM on CSF1R (setting [2]) is 46%; at CSF1R (setting [3]) it was less than 50%.
The corresponding values for `COc1cc2nccc(Oc3ccc(NC(=O)c4nn(CC(C)O)cc4OCC(F)(F)F)cn3)c2cc1OC` (stereo not drawn) [Compound 136] are less than 100 nM, 23% and less than 50%.
On to `COc1cc2nccc(Oc3ccc(NC(=O)c4nn(C5CCN(C)C5)cc4OCC(F)(F)F)cc3)c2cc1OC` (stereo not drawn) [Compound 100], for which the Kd at Axl (setting [1]) is less than 100 nM. Also, the values for the inhibition at 0.1 µM at CSF1R (setting [2]) and at CSF1R (setting [3]) were 36% and less than 50%, respectively.
The corresponding values for `COc1cc2nccc(Oc3ccc(NC(=O)c4nn(C5CC5)cc4OCCF)nn3)c2cc1OC` [Compound 113] are less than 100 nM, 82% and no less than 80%.
Consider `COc1cc2nccc(Oc3ccc(NC(=O)c4n[nH]cc4OCC(F)(F)F)nc3)c2cc1OC` [Compound 16], for which the Kd was 19 nM on Axl (setting [4]) and less than 100 nM at Axl (setting [1]). Further, the inhibition at 0.1 µM was 99% on CSF1R (setting [2]) and no less than 80% at CSF1R (setting [3]).
